For experiment [1], the system named is REL-A (p65) nuclear translocation, HeLa cells. Put plainly: REL-A (p65) nuclear translocation assay in HeLa cells (classical NF-kB signaling, TNF-α stimulated). Format: cell-based. Conditions: Homo sapiens, 0.5 h; HeLa cells, 10 ng/mL TNF-α for 30 minutes; read-out: REL-A HeLa Transloc Assay (IC50). The method in brief:
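HeLa cells were exposed to test compounds at various concentrations (0.2% DMSO final) in medium with 10% fetal bovine serum for 4.5 hours, then stimulated for 30 minutes with 10 ng/mL TNF-α. After fixation in 4% paraformaldehyde, 0.1% Triton X-100 permeabilization and staining with 400 ng/mL anti-REL-A (p65) antibody, Alexa488 secondary and DRAQ5, Opera imaging gave nuclear-to-cytoplasmic signal ratios to calculate IC50.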

The target in experiment [2] is nuclear factor-kappa B (NF-kB)-inducing kinase (NIK) (Homo sapiens (Human), UniProt Q99558). In words: NIK enzyme inhibition assay (Transcreener ADP, NIK ADP-FP). It counts as biochemical. Conditions: purified NIK 0.5 nM, 10 μM ATP, fluorescence polarization; read-out: NIK ADP-FP (Ki μM). (In general: Fluorescence polarisation rises when a labelled molecule tumbles more slowly, as on binding a larger partner.)

Experiment [3] has as its system p52 (NF-kB2) nuclear translocation, HeLa cells. Put plainly: p52 (NF-kB2) nuclear translocation assay in HeLa cells (non-classical NF-kB signaling, anti-lymphotoxin beta receptor antibody stimulated). Format: cell-based. Conditions: Homo sapiens, 100 ng/mL anti-lymphotoxin beta receptor antibody for 5 hours, read-out: p52 HeLa Transloc Assay (IC50). The method in brief: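 HeLa cells in 10% FBS medium were treated with compound (0.2% DMSO final) and stimulated with 100 ng/mL anti-lymphotoxin beta receptor antibody for 5 h. Fixed cells were immunostained for p52 and imaged with DRAQ5 nuclear stain. Translocation is the nuclear to cytoplasmic intensity ratio, and IC50 values are in micromolar.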

Bounds are passed on as bounds.

nuclear factor-kappa B (NF-kB)-inducing kinase (NIK), sequence (Q99558 whole entry): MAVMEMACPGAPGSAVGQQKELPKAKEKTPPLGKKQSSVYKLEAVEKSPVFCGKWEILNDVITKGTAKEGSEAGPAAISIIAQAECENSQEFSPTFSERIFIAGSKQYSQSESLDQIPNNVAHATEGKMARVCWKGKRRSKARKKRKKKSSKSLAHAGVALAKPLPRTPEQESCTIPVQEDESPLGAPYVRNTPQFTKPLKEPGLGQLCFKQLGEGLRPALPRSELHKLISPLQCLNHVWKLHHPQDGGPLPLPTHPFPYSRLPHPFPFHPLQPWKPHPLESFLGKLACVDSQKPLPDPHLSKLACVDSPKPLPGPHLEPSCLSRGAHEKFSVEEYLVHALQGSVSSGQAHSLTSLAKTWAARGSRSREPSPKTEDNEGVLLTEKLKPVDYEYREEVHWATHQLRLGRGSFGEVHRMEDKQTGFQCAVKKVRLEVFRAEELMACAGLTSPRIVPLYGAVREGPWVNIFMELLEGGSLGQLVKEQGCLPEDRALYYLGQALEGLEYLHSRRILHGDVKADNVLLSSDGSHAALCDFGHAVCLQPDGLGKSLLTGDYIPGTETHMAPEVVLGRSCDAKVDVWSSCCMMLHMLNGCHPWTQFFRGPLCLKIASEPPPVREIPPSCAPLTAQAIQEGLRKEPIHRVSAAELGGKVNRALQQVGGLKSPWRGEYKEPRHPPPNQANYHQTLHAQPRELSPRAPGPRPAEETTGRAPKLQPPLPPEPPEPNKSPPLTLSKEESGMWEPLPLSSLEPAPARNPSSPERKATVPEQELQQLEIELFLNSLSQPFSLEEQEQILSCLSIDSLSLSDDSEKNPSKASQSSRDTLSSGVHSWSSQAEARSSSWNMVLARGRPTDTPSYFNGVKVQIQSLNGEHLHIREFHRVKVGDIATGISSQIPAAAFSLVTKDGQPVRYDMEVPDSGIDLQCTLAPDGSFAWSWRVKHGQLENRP

As a reminder, the IC50 is the concentration at which inhibition is half-maximal. What is called Ki is the dissociation constant of the complex between target and ligand, obtained from inhibition or displacement. For `CN1CC[C@@](O)(C#Cc2cccc(-c3nc(C(N)=O)n4ccc(C(N)=O)cc34)c2)C1=O` [Compound 178, 1-[3-[2-[(3R)-3-hydroxy-1-methyl-2-oxo-pyrrolidin-3-yl]ethynyl]phenyl]imidazo [1,5-a]pyridine-3,7-dicarboxamide], the values for the IC50 in experiment [1] and in experiment [3] were greater than 2000 nM and 636 nM, respectively. Moreover, in experiment [2], the Ki came to 0.1 nM.

Consider `COc1ccn2c(C(N)=O)nc(-c3cccc(C#C[C@@](C)(O)c4nnc(C)o4)c3)c2c1` [Compound 181, 1-[3-[(3R)-3-hydroxy-3-(5-methyl-1,3,4-oxadiazol-2-yl)but-1-ynyl]phenyl]-7-methoxy-imidazo[1,5-a] pyridine-3-carboxamide], for which the IC50 in experiment [1] was greater than 2000 nM; in experiment [3] it was 48 nM. In addition, the Ki in experiment [2] turned out to be 0.1 nM.

`Cc1nnc([C@](C)(O)C#Cc2cccc(-c3nc(C(N)=O)n4cc(Cl)ccc34)c2)o1` [Compound 185, 6-chloro-1-[3-[(3R)-3-hydroxy-3-(5-methyl-1,3,4-oxadiazol-2-yl)but-1-ynyl]phenyl]imidazo[1,5-a]pyridine-3-carboxamide]: the values for the IC50 in experiment [1] and in experiment [3] were greater than 2000 nM and 1500 nM, respectively. In addition, in experiment [2], the Ki stood at 7.54 nM.

On to `CN1CC[C@@](O)(C#Cc2ccc(F)c(-c3nc(C(N)=O)n4cc(Cl)ccc34)c2)C1=O` [Compound 186, 6-chloro-1-[2-fluoro-5-[2-[(3R)-3-hydroxy-1-methyl-2-oxo-pyrrolidin-3-yl]ethynyl]phenyl]imidazo[1,5-a] pyridine-3-carboxamide], for which the IC50 is greater than 2000 nM in experiment [1] and 36 nM in experiment [3]. In addition, the Ki in experiment [2] came out at 0.1 nM.

For `Cc1nnc([C@](C)(O)C#Cc2cccc(-c3nc(C(N)=O)n4ccc(Cl)cc34)c2)o1` [Compound 187, 7-chloro-1-[3-[(3R)-3-hydroxy-3-(5-methyl-1,3,4-oxadiazol-2-yl)but-1-ynyl]phenyl] imidazo[1,5-a]pyridine-3-carboxamide], the IC50 was greater than 2000 nM in experiment [1] and 198 nM in experiment [3]. Also, the inhibition constant (Ki) in experiment [2] was 1.12 nM.

Consider `CC1Cc2c(C(N)=O)nn(-c3cccc(C#C[C@]4(O)CCN(C)C4=O)c3)c2C1` (stereo partly drawn) [Compound 188, 1-[3-[2-[(3R)-3-hydroxy-1-methyl-2-oxo-pyrrolidin-3-yl]ethynyl]phenyl]-5-methyl-5,6-dihydro-4H-cyclopenta [c]pyrazole-3-carboxamide], for which the IC50 was greater than 2000 nM in experiment [1] and 205 nM in experiment [3]. In experiment [2], the Ki stood at 0.85 nM.

Regarding `CN1CC[C@@](O)(C#Cc2cccc(-n3nc(C(N)=O)c4ccc(F)cc43)c2)C1=O` [Compound 189, 6-fluoro-1-[3-[2-[(3R)-3-hydroxy-1-methyl-2-oxo-pyrrolidin-3-yl]ethynyl]phenyl] indazole-3-carboxamide], the half-inhibitory concentration (IC50) was greater than 2000 nM in experiment [1] and 95 nM in experiment [3]. The Ki in experiment [2] turned out to be 0.05 nM.

The values are drawn from patent US9605005B2, “Alkynyl alcohols and methods of use” (Genentech, Inc., priority 2013, dated 2017).
